Structures can show the parent of a compound that is named as a salt.
Assay: in vitro
Conditions: rat, gh3-tre-luc cells, AC50 (uM) modified / 1000
With Cc1cccc2c1cc1ccc3cccc4ccc2c1c34 [7-Methylbenzo(a)pyrene] the CC50 at 24 h was greater than 90 µM.
OCc1ccccn1 [Piconol] gave a CC50 at 24 h greater than 50 µM.
Compound CCOC(=O)[N-]c1cn(N2CCOCC2)n[o+]1 [Molsidomine] has a CC50 at 24 h greater than 20 µM.
With CCCCN(CCCC)CCCC [Tributylamine] the CC50 at 24 h was greater than 90 µM.
With NC(=O)c1ccccc1N [2-Aminobenzamide] the CC50 at 24 h was greater than 90 µM.
CC1OCCC1=O (centres unmarked) [2-Methyldihydrofuran-3(2H)-one] gave a CC50 at 24 h greater than 90 µM.
Work on CO/N=C(\C(=O)N[C@@H]1C(=O)N2C(C(=O)OCOC(=O)C(C)(C)C)=C(/C=C\c3scnc3C)CS[C@H]12)c1csc(N)n1 [Cefditorin pivoxil] yielded a CC50 at 24 h greater than 50 µM.
Work on COc1ccc(-c2cc(=O)c3c(O)cc(O[C@@H]4O[C@H](CO[C@@H]5O[C@@H](C)[C@H](O)[C@@H](O)[C@H]5O)[C@@H](O)[C@H](O)[C@H]4O)cc3o2)cc1O [Diosmin] yielded a CC50 at 24 h greater than 50 µM.
CCCSS/C(CCO)=C(/C)N(C=O)Cc1cnc(C)nc1N [Prosultiamine] showed a CC50 at 24 h of 22.5 µM.
COc1ccc(/C=C/S(=O)(=O)NC(=O)c2ccc(C)cc2Cl)cc1 [PharmaGSID_48514] showed a CC50 at 24 h greater than 90 µM.
In the case of CCCCCCCCCCCCN1CCOCC1 [4-Dodecylmorpholine], the CC50 at 24 h is reported as greater than 90 µM.
With CSc1nnc(C(C)(C)C)c(=O)n1N [Metribuzin] the CC50 at 24 h was greater than 90 µM.
Compound COC(=O)N(OC)c1ccccc1COc1ccn(-c2ccc(Cl)cc2)n1 [Pyraclostrobin] has a CC50 at 24 h of 59.8 µM.
CC[C@H]1[C@@H]2C[C@H]3[C@@H]4N(C)c5ccccc5[C@]45C[C@@H]([C@H]2[C@H]5O)N3[C@@H]1O [Ajmaline] showed a CC50 at 24 h greater than 20 µM.
Work on O=C(OCc1ccccc1)c1cccnc1 [Benzyl nicotinate] yielded a CC50 at 24 h greater than 50 µM.
With CCOc1ccc(OCC)c(Cl)c1 [2-Chloro-1,4-diethoxybenzene] the CC50 at 24 h was greater than 90 µM.
CC(C)OC(=O)Nc1ccc2[nH]c(-c3cscn3)nc2c1 [Cambendazole] gave a CC50 at 24 h of 4.4 µM.
CCCCCCCCCCl [1-Chlorononane] showed a CC50 at 24 h greater than 90 µM.
O=C(CCCN1CCC(O)(c2ccc(Br)cc2)CC1)c1ccc(F)cc1 [Bromperidol] gave a CC50 at 24 h greater than 20 µM.
For CCN(CC)S(=O)(=O)c1ccc(C(=O)O)cc1 [Ethebenecid], the CC50 at 24 h was greater than 50 µM.
In the case of Oc1ccc(Sc2ccc(O)cc2)cc1 [4,4'-Thiodiphenol], the CC50 at 24 h is reported as 47.9 µM.
CCCN [Propylammonium nitrate] gave a CC50 at 24 h greater than 90 µM.
CCCCCCCCCCCCCC(=O)OCC(O)CO (centres unmarked) [Tetradecanoic acid, 2,3-dihydroxypropyl ester] gave a CC50 at 24 h greater than 90 µM.
With CN1CC(=O)N2[C@H](c3ccc4c(c3)OCO4)c3[nH]c4ccccc4c3C[C@@H]2C1=O [Tadalafil] the CC50 at 24 h was greater than 50 µM.
With O=C1OC(=O)C2C1C1(Cl)C(Cl)=C(Cl)C2(Cl)C1(Cl)Cl (centres unmarked) [Chlorendic anhydride] the CC50 at 24 h was greater than 90 µM.
For CCSC(=O)N(CC)CC [Ethiolate], the CC50 at 24 h was greater than 90 µM.
Compound CC(C)(C)OC=O [tert-Butyl formate] has a CC50 at 24 h greater than 100 µM.
O=CCCl [Chloroacetaldehyde] showed a CC50 at 24 h greater than 90 µM.
N#CCCCC(C#N)CCC#N (centres unmarked) [1,3,6-Hexanetricarbonitrile] gave a CC50 at 24 h greater than 90 µM.
Work on Cc1ccc(N)cc1N [2,4-Diaminotoluene] yielded a CC50 at 24 h greater than 90 µM.
Compound CC(C)NC(=O)c1ccccc1N [2-Amino-N-(1-methylethyl)benzamide] has a CC50 at 24 h greater than 90 µM.
O=C(CCN1CCN2CCCC2C1)N1c2ccccc2Sc2ccc(Cl)cc21 (centres unmarked) [Azaclorzine] gave a CC50 at 24 h of 14.6 µM.
Work on CCOc1cc(N)c(Cl)cc1C(=O)NCC1CN(Cc2ccc(F)cc2)CCO1 (centres unmarked) [Mosapride citrate] yielded a CC50 at 24 h greater than 50 µM.
Work on CC(C)=CC1C(C(=O)OCc2cccc(Oc3ccccc3)c2)C1(C)C (centres unmarked) [Phenothrin] yielded a CC50 at 24 h greater than 90 µM.
In the case of Cc1ccc(C(C)(C)O)cc1 [p-Cymen-8-ol], the CC50 at 24 h is reported as greater than 90 µM.

Same assay, conditions: rat, gh3-tre-luc cells, AC50 (uM) modified / 1000, Tox21_110001=Tox21_111100; viability, 1 nM T3 present, 24 h
Work on Oc1cc(Cl)c(Cl)cc1Cl [2,4,5-Trichlorophenol] yielded a CC50 at 24 h greater than 50 µM.

Same assay, conditions: rat, gh3-tre-luc cells, AC50 (uM) modified / 1000, Tox21_110001=Tox21_112821; viability, 1 nM T3 present, 24 h
Work on CCCSc1cc(OC)c(CCN)cc1OC [2-[2,5-dimethoxy-4-(propylsulfanyl)phenyl]ethanamine hydrochloride] yielded a CC50 at 24 h of 34.6 µM.

Same assay, conditions: rat, gh3-tre-luc cells, AC50 (uM) modified / 1000, Tox21_110001=Tox21_201545; viability, 1 nM T3 present, 24 h
For Oc1cc(Cl)c(Cl)cc1Cl [2,4,5-Trichlorophenol], the CC50 at 24 h was greater than 90 µM.
